Molecules are shown by their SMILES. pKd: −log10 of the molar value. Several values for one entry are separate records, joined by “and”; a condition that tells them apart may be missing. Identical values can stand only once. Activity calls are given as the source filed them. No rule for the calls is given here. Some results are limits rather than exact numbers.

Sequence of Peptidyl-prolyl cis-trans isomerase FKBP1A (Homo sapiens) (P62942 whole entry, looked up): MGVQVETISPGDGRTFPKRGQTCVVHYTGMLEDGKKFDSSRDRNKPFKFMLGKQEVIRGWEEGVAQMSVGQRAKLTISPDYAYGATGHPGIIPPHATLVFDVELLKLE

This experiment addresses Peptidyl-prolyl cis-trans isomerase FKBP1A (Homo sapiens) (UniProt P62942). Description: small-molecule binding to FKBP12 – biophysical, NMR detection (AID 608). As to conditions: purified FKBP12.
In general, Kd refers to the equilibrium constant for the complex coming apart. For `Cc1ccc(C)n1NC(=O)c1ccco1`, the Kd is > 4 mM (inactive). Same read-out and setting: with `O=C(Nc1nnc(C(F)(F)F)s1)c1cccnc1` the figure was > 4 mM (inactive); with `C[C@]12CC(=O)C3C(CC[C@@H]4C[C@H](O)CC[C@]34C)C1CC[C@]2(O)C(=O)CO` (stereo partly drawn), > 4 mM (inactive); with `O=C(NCc1ccco1)c1cccc(F)c1`, > 4 mM (inactive). Turning to `COc1cc2c(cc1-c1coc3c4c(c(OC)cc3c1=O)OC(C)(C)C=C4)OCO2`, the Kd was > 4 mM (inactive). Same read-out and setting: with `C(=C\c1ccccc1)/C=N/n1cnnc1` the figure was > 4 mM (inactive); with `Nc1nnc(COc2cccc(C(F)(F)F)c2)s1`, > 4 mM (inactive). Turning to `COCc1c(CN)cnc(C)c1N`, the Kd was > 4 mM (inactive). `Cc1nc2ccc(C(=O)O)cc2[nH]1`: the Kd is > 4 mM (inactive). The same measure, in the same setting: with `O=CN1CCN(C(=O)c2ccco2)CC1` the figure was > 4 mM (inactive). Still for that read-out and setting: with `O=C(O)c1cc(O)c2c(c1)C(=O)c1cc(O)cc(O)c1C2=O` the figure was > 4 mM (inactive); with `NC(=O)COc1cccc2cccnc12`, > 4 mM (inactive); with `CN(C)S(=O)(=O)c1ccc(C(=O)NN)cc1`, > 4 mM (inactive). The same measure, in the same setting: with `COc1ccc(-c2ccc(SCC(N)=O)nn2)cc1` the figure was > 4 mM (inactive); with `CN(C)c1n[nH]c(=O)[nH]c1=O`, > 4 mM (inactive). On to `Oc1ccccc1N=Cc1cccnc1`, for which the Kd was > 4 mM (inactive). Still for that read-out and setting: with `CC(=O)c1cccc(NC(=O)Nc2c(C)nn(C)c2C)c1` the figure was > 4 mM (inactive); with `c1ccc(SCc2nc(-c3cccnc3)no2)cc1`, > 4 mM (inactive). `O=C1CSC2(CN3CCC2CC3)N1` (stereo not drawn): the Kd is > 4 mM (inactive). Same read-out and setting: with `Cc1nc2cc(Cl)ccc2n1CCO` the figure was > 4 mM (inactive); with `Cc1cc(C)c(C)c(OCC(=O)N2CCOCC2)c1`, “inactive”. For `Cc1ccc(NC(=O)C(=O)Nc2ccccn2)cc1`, the Kd is > 4 mM (inactive).

In the case of `CP(C)(=O)c1cccc(C(=O)O)c1`, the Kd is > 4 mM (inactive).

Take `O=S(=O)(Nc1ccc2c(c1)OCCO2)c1cccs1`: the Kd was > 4 mM (inactive).

As to `Cc1ccc(-c2nc(-c3cccnc3)no2)cc1`, the Kd is > 4 mM (inactive). Still for that read-out and setting: with `Cc1ccc(NC(=O)CN2C(=O)CSC2=O)cc1` the figure was > 4 mM (inactive); with `CC(=O)O[C@H]1CC[C@]2(C)C3CC[C@@]4(C)C(CC5O[C@@]6(CCC(C)CO6)[C@@H](C)C54)C3CC[C@@H]2C1` (stereo partly drawn), > 4 mM (inactive). On to `COc1ccc(C[C@H]2NC[C@H](O)[C@H]2OC(C)=O)cc1`, for which the Kd was > 4 mM (inactive). Same read-out and setting: with `Cc1occc1C(=O)NCc1ccncc1` the figure was > 4 mM (inactive). With `O=C1Nc2ccccc2C1C1(O)C(=O)Nc2ccc(F)cc21` (stereo not drawn), the Kd was > 4 mM (inactive). On the same count and under the same terms, with `Cc1cc(NC(=O)Cc2c(F)cccc2Cl)no1` the figure was > 4 mM (inactive).

With `O=C(NCCO)NC(=S)c1ccccc1`, the Kd was > 4 mM (inactive). Same read-out and setting: with `COC(=O)C1=C(C)N(Cc2ccco2)C(=O)C1` the figure was > 4 mM (inactive); with `CCC(=O)NC(=S)Nc1ccc(N2CCOCC2)cc1`, > 4 mM (inactive); with `CC(=O)c1c(C)nc2ccccc2c1N`, > 4 mM (inactive). For `Nc1nc(SCC(=O)c2ccc([N+](=O)[O-])cc2)n[nH]1`, the Kd is > 4 mM (inactive).

Consider `Cc1cc(SCC(=O)Nc2nccs2)nc(=O)[nH]1`, for which the Kd was > 4 mM (inactive).

As to `COc1ccc2c(c1O)-c1c(OC)c(OC)cc3c1[C@H](C2)N(C)CC3`, the Kd was > 4 mM (inactive).

In the case of `O=c1c[n+]([O-])c2ccccc2n1OCc1ccccc1`, the Kd was > 4 mM (inactive). Turning to `Cc1cccc(NC(=O)Nc2cc(C)on2)c1`, the Kd is > 4 mM (inactive). For the molecule `Cc1ccc(-n2ncc(C#N)c2/N=C/N(C)C)cc1`, the Kd was > 4 mM (inactive). Turning to `CN(C)C(=O)N1CCN(C(=O)c2ccco2)CC1`, the Kd was > 4 mM (inactive). For `CC(=O)Nc1ccc2c(c1)n(C)c(=O)n2C`, the Kd is > 4 mM (inactive). As to `O=C1O[C@H](C(O)CO)C(O)=C1O` (stereo partly drawn), the Kd was > 4 mM (inactive). Turning to `NC(=O)CCN1C(=O)c2ccccc2C1=O`, the Kd is > 4 mM (inactive). The same measure, in the same setting: with `COc1c2c(cc3cc[n+](C)cc13)OCO2` the figure was > 4 mM (inactive); with `Cn1c(=O)c2cn3ncccc3c2n(C)c1=O`, > 4 mM (inactive). On the same count and under the same terms, with `c1ccc(CN2CCC3(CC2)Nc2ccccc2CO3)cc1` the figure was > 4 mM (inactive); with `COC(=O)/C(C)=C\CC12OC(C)(C)C3CC(C=C4C(=O)c5c(OC)c6c(c(CC=C(C)C)c5OC431)OC(C)(CCC=C(C)C)C=C6)C2=O` (stereo not drawn), > 4 mM (inactive); with `Cc1nc2ccccc2n1S(=O)(=O)N1CCCCC1`, “inactive”.

Regarding `CC(=O)Nc1cccc(-c2nnc(-c3ccccc3)o2)c1`, the Kd was > 4 mM (inactive). The same measure, in the same setting: with `OCC1CN(Cc2ccccc2)CCO1` (stereo not drawn) the figure was > 4 mM (inactive). What is called pKd is the Kd on a negative log10 scale, so that one unit is a factor of ten. With `c1ccc(SCc2nc(-c3ccncc3)no2)cc1`, the pKd is 3.50 and 3.78. For the molecule `COC(=O)C[C@H]1C(C)(C)C(OC(C)=O)[C@]2(O)C=C3C(CC[C@]4(C)C3CC(=O)O[C@H]4c3ccoc3)C1(C)C2=O` (stereo partly drawn), the Kd is > 4 mM (inactive). On the same count and under the same terms, with `CCN1CCC2(CC1)CC1CC3C=CC1(CN2C(C)=O)O3` (stereo not drawn) the figure was > 4 mM (inactive); with `COC(=O)c1cc2ccccc2cn1`, > 4 mM (inactive). The same measure, in the same setting: with `COc1ccc2c(c1)OCC(Cc1ccc(OC)c(OC)c1)C2=O` (stereo not drawn) the figure was > 4 mM (inactive). `CC1=C2[C@H]3OC(=O)[C@@H](C)[C@@H]3CC[C@@]2(C)C=CC1=O`: the Kd is > 4 mM (inactive).

In the case of `CC(=O)Nc1nc2c(s1)C(=O)NCCC2`, the Kd is > 4 mM (inactive). The same measure, in the same setting: with `CN1CCCn2c1nc1c2c(=O)[nH]c(=O)n1C` the figure was > 4 mM (inactive); with `CC1(C)CC2C1CCC1(C)OC2(C)CCC1O` (stereo not drawn), > 4 mM (inactive); with `Cc1oc(-c2ccccc2)cc1CO`, > 4 mM (inactive). On the same count and under the same terms, with `COc1ccc(-c2coc3cc(O)ccc3c2=O)c(O)c1O` the figure was > 4 mM (inactive); with `O=S1(=O)CCC(N2CCCCC2)C1` (stereo not drawn), > 4 mM (inactive); with `CCOC(=O)c1cc(C)[nH]n1`, > 4 mM (inactive). The same measure, in the same setting: with `COc1ccc2c(c1OC)C(=O)O[C@@H]2[C@@H]1c2cc3c(cc2CCN1C)OCO3` the figure was > 4 mM (inactive); with `O=C(Nc1ccon1)c1cccc(C(F)(F)F)c1`, > 4 mM (inactive).

As for `CN1CCN(CC(O)c2ccccc2)CC1` (stereo not drawn), the Kd was > 4 mM (inactive). The same measure, in the same setting: with `CC1(C)C=Cc2cc3ccc(=O)oc3cc2O1` the figure was > 4 mM (inactive); with `Nc1cccc(-n2cccc2)c1`, > 4 mM (inactive); with `COc1nc(N2CCOCC2)nc(N)c1[N+](=O)[O-]`, > 4 mM (inactive). As to `COC(=O)C1=CCCN(C)C1`, the Kd was > 4 mM (inactive).

Take `Cc1cccc(C)c1N1C(=O)CCC1=O`: the Kd is > 4 mM (inactive). As for `Cc1ccc(NS(=O)(=O)N2CCCCC2)cc1`, the pKd was 3.37.

On to `Nc1nnc(SCc2ccc(F)cc2)s1`, for which the Kd was > 4 mM (inactive). In the case of `CNC(=S)Nc1ccc(OC)cc1C`, the Kd is > 4 mM (inactive). Still for that read-out and setting: with `O=C(O)c1ccnn1-c1ccccc1` the figure was > 4 mM (inactive); with `CC(=O)N1CCN(C2CCSC2)CC1` (stereo not drawn), > 4 mM (inactive); with `COc1c2c(c(CC=C(C)C)c3oc(=O)c(-c4ccc(O)cc4)c(O)c13)OC(C)(C)C=C2`, > 4 mM (inactive).

As to `COC(=O)c1cc(C)on1`, the Kd was > 4 mM (inactive).

On to `C[C@@H](N)[C@@H](O)c1ccccc1`, for which the Kd is > 4 mM (inactive). In the case of `C(=N\n1cnnc1)/c1cccs1`, the Kd is > 4 mM (inactive). On the same count and under the same terms, with `O=C(O)C1CC(=O)N(Cc2cccs2)C1` (stereo not drawn) the figure was > 4 mM (inactive); with `NC(=O)C1CCN(C(=S)c2ccccc2)CC1`, > 4 mM (inactive). As to `CC(=O)Nc1sc(C)c(C)c1C(N)=O`, the Kd was > 4 mM (inactive). Regarding `Nc1ccc2c(c1)S(=O)(=O)C=C2`, the Kd was > 4 mM (inactive). Still for that read-out and setting: with `CC(C)(C)Cc1nc(-c2ccccn2)no1` the figure was > 4 mM (inactive); with `O=C1N=c2ccccc2=C1c1[nH]c(=S)[nH]c1O`, > 4 mM (inactive); with `Cc1nn(C)c(N2CCOCC2)c1N`, > 4 mM (inactive). Same read-out and setting: with `CN1CCC[C@H]1c1cccnc1` the figure was > 4 mM (inactive); with `O=C1CN(C(=O)c2ccccc2F)c2ccccc2N1`, > 4 mM (inactive); with `O=C(O)CCN1CCc2ccccc2C1c1ccncc1` (stereo not drawn), > 4 mM (inactive). Consider `COc1ccc(OCC(=O)N2CCOCC2)cc1`, for which the Kd result is “inactive”. Same read-out and setting: with `O=C(c1cc(Cl)cc(Cl)c1)N1CCOCC1` the figure was > 4 mM (inactive).

As for `O=S(=O)(Nc1ccc(Br)cc1)N1CCCCC1`, the pKd was 3.17. Turning to `COC(=O)/C(=C1\OC(=O)C(c2ccccc2)C1=O)c1ccccc1` (stereo not drawn), the Kd is > 4 mM (inactive).

With `O=C(Nc1ccon1)c1ccc2c(c1)OCO2`, the Kd was > 4 mM (inactive). The same measure, in the same setting: with `CC1CC[C@]2(NC1)O[C@H]1CC3C4CC[C@H]5C[C@@H](O)CC[C@]5(C)C4CC[C@]3(C)[C@H]1[C@@H]2C` (stereo partly drawn) the figure was > 4 mM (inactive); with `CC1=CC(=O)C2C(C)(C)CCC[C@]2(C)[C@@]1(O)CCc1ccoc1` (stereo partly drawn), > 4 mM (inactive). The same measure, in the same setting: with `COc1cc2c(cc1O)[C@@H](Cc1ccc(O)cc1)[N+](C)(C)CC2` the figure was > 4 mM (inactive); with `Cc1nnc(N2CCN(c3ccccc3)CC2)[nH]c1=O`, > 4 mM (inactive); with `CN(C)C(=O)Nc1ccc2c(c1)nnn2C`, > 4 mM (inactive). Still for that read-out and setting: with `COc1ccc(C)cc1S(=O)(=O)NC1CCCC1` the figure was > 4 mM (inactive).

Source of the values: PubChem BioAssay AID608 (Sanford-Burnham Center for Chemical Genomics, 2007).
